Measurements taken from a melting point compilation (Tetko et al.; mined from patent text by program, amines drawn as free bases though some values may be those of a salt).

| melting point [°C] | Compound |
| --- | --- |
| 112 to 113 | CC(C)NC(=Nc1ccc(Cl)cc1)Nc1ncccc1OCc1c(F)cccc1F |
| 90 to 91 | COC(=O)c1cc(OCCc2nc(-c3ccccc3)oc2C)no1 |
| 135 to 138 | COc1ccc2c(c1)C(=O)C(C)(C)CC2c1ccc(Cl)cc1 (stereo not given) |
| 105 to 107 | COc1nc(C)cnc1NS(=O)(=O)c1cccnc1-c1ccc(NC(C)C)cc1 |
| 101 to 102 | O=[N+]([O-])c1ccc(OCCCCCOc2ccc([N+](=O)[O-])cc2)cc1 |
| 122 to 124 | Cc1[nH]c2ccc(CCN(C)C3CCCCC3)cc2c1C(=O)OCc1ccccc1 |
| 154 | O=C1CCC(=O)N1c1cccc2ccccc12 |
| 208 to 209 | CC(C)c1ccc(-c2cc(-c3cccc(C(=O)O)c3)cs2)cc1 |
| 63 to 64 | O=C1Cc2cc(F)ccc2Oc2ccccc21 |
| 150 to 151 | COc1cc(C(=O)Cc2ccccc2C)cc([N+](=O)[O-])c1O |
| 164 to 166 | COc1cc(F)cc2c1-c1c(F)cc(F)cc1C2=O |
| 230 | O=C(CCl)NC1(c2ccccc2Cl)C(=O)Nc2ccc(Cl)cc21 (stereo not given) |
| 107 to 108 | O=C(O)CCn1c(=O)c2ccccc2n(CCCCN2CCC(OC(c3ccccc3)c3ccccc3)CC2)c1=O |
| 140 to 141 | O=C1c2ccccc2C(=O)c2c(NCCN3CCCCC3)ccc(NCCN3CCCCC3)c21 |
| 124 | CC(=O)Nc1ccc(-c2ccc(CC34CCCN3C(=O)N(c3cc(Cl)cc(Cl)c3)C4=O)cc2)cc1 (stereo not given) |
| 235 | NS(=O)(=O)c1nc2ccc(OC(=O)C=Cc3ccccc3)cc2s1 |
| 317 to 318 | COc1cc(OC)c2c(=O)[nH]c(-c3ccc(CN4C(=O)CNC4=O)cc3)nc2c1 |

| melting point [°C] | Compound |
| --- | --- |
| 278 to 280 | O=C1NC(=O)c2ccc(Br)cc2/C1=C/NCCc1c[nH]c2ccccc12 |
| 168 to 170 | COc1ccc(C(=O)c2ccc(-c3ccc(Cl)cc3)nc2)cc1OC |
| 152 to 154 | CCC1c2cccn2-c2ccc(F)cc2N1S(=O)(=O)c1ccc(OC)c(Cl)c1 (stereo not given) |
| 176 | CC(C)CCC(=O)C(C(=O)O)C1c2ccccc2C(=O)N1c1ccc2ccc(Cl)nc2n1 (stereo not given) |
| 165 | O=C(O)c1csc(-c2cccc(Cn3cc(C4c5ccccc5C=Cc5ccccc54)c(=S)[nH]c3=O)c2)n1 |
| 121 to 123 | O=C(O)C(=O)c1ccc(OCCSc2ccc3ccccc3c2)cc1 |
| 188 to 190 | COc1cc2c(Nc3ccc(Cl)cc3F)ncnc2cc1OCCOc1cccnc1 |
| 98 to 106 | Cc1noc(NS(=O)(=O)c2ccccc2-c2ccc(-c3ncco3)cc2CCN(C)C(=O)Cc2ccccc2)c1C |
| 226 to 232 | Cc1ccccc1-n1ccc2c(=O)[nH]c3c(C)cccc3c21 |
| 182 to 184 | O=C(O)c1c(NCc2ccccc2)nc2ccc(Br)cc2c1Cl |
| 80 to 82 | CCOC(=O)n1nc(-c2cccc(OC)c2)nc1-c1ccccc1CC |
| 130 to 133 | CCCCc1nn(-c2cc(NC(=O)c3ccccc3)ccc2Br)c(=O)n1Cc1ccc(-c2ccccc2S(=O)(=O)NC(=O)OC(C)(C)C)cc1F |
| 214 to 215 | Cc1cc2c(-c3cccc(C=O)c3)c(CC(=O)Nc3ccc(F)cc3C(F)(F)F)c(=O)oc2cc1Cl |
| 250 to 252 | COc1cc2c(Nc3ccc(Br)cc3F)ncnc2cc1OCCCSC |
| 127 to 129 | CCCCCCCCOc1ccc2c(c1)C(=O)c1cc3ccccc3cc1C2=O |
| 199 to 216 | CC(C)c1ccc(S(=O)(=O)n2c(Cc3ccc(C(=O)O)s3)cc3cc(C(F)(F)F)ccc32)cc1 |
| 178 | O=C(Nc1nc2ccccc2o1)C(Cc1ccc(F)cc1)c1ccc(F)cc1F (stereo not given) |

Second part, the compound before the results:

| Compound | melting point [°C] |
| --- | --- |
| O=C1CNc2ncc(I)cc2N1Cc1ccc(C(F)(F)F)o1 | 189 to 191 |
| NCCn1c(=O)nc(-c2ccc3c(c2)OCO3)c2cc3c(cc21)OCO3 | 115 to 120 |
| Cc1ccc(Cl)c(-c2nn(C(C)(C)C(=O)N(C)C)cc2C)c1 | 106 to 108 |
| Cc1c(Cc2cccnc2)oc2ccc(Br)cc12 | 57 to 58 |
| C=C(C)C(=O)NCC(=O)Nc1cc(Cl)c(C)c(Cl)c1O | 217 to 218 |
| OC1(c2ccncc2)Cc2ccccc2C2=NCCN21 (stereo not given) | 162 to 164 |
| COc1cc(Cl)ncn1 | 32 to 34 |
| CS(=O)c1c(C2(C)NCCS2)nn(-c2c(Cl)cc(C(F)(F)F)cc2Cl)c1N (stereo not given) | 85 |
| CNC(=O)C(Cc1ccc(OC)cc1)NC(=O)C(C)(CC(C)C)c1c(S)cccc1Cl (stereo not given) | 159 to 163 |
| CCOC(=O)CNc1c([N+](=O)[O-])cc([N+](=O)[O-])c2ccccc12 | > 305 |
| CCCCCC(CCN1C(=O)NC2CC(=O)CC21)OC(C)=O (stereo not given) | 85 to 86 |
| N#CC(=CN1CCOCC1)Cc1ccc2c(c1)OCO2 | 85 to 85.5 |
| CCCc1nc2cc(CC(=O)O)ccc2o1 | 67 to 68 |
| NC(=NCC(F)(F)F)Nc1ccnc(SCCCC2=NCCN2)n1 | 184 to 186 |
| c1cnc2c(N3CCC(N4CCN(c5cccc6[nH]ccc56)CC4)CC3)cccc2c1 | 256 |
| COc1ccc(-c2c(Cl)c(CCl)nc3cc(OC)c(OC)cc23)cc1OC | 206 to 207 |
| Cc1c(-c2ccc(C#N)cc2)c(C#N)c(C2CC2)n1Cc1cnc(Cl)c(COC(=O)CCC(=O)O)c1 | 188 to 189 |
| CC(C)(C)c1cc(N)n(-c2ccccc2)n1 | 65 to 67 |
| Cn1ccn(-c2ccc(N3CCN(c4ccc(O)cc4)CC3)cc2)c1=O | 283 |
| COc1cccc(OC)c1-c1nc2nccnc2[nH]1 | 248 to 249 |
| COc1cc2[nH]ccc(=O)c2cc1OC | 120 to 122 |
| COc1ccc(C2(O)CCSCC2)cc1OC1CCCC1 | 83 to 85 |
| CC(=O)N1CCN(c2c(-c3ccccc3)sc3ccccc23)CC1 | 167 to 169 |
| CCOCC(=O)Nc1ncc(Br)s1 | 100 to 102 |

| Compound | melting point [°C] |
| --- | --- |
| CCOC(=O)c1sc(CC)nc1C(F)(F)F | 30 to 32 |
| CCOC(=O)C=Cc1cnc(N(Cc2ccc(OC)c(OC)c2)C(=O)OC(C)(C)C)n2nc(-c3ccco3)nc12 | 124 to 129 |
| OCCCSc1ccc2nccn2n1 | 108 to 109 |
| CC(C)c1ccc2nc3ccc(C#N)cc3c(=O)n2c1 | 207 to 211 |
| CCc1nnc2c(Cl)nc3ccccc3n12 | 158 to 160 |
| CC(C)(C)OC(=O)NCC/C=C/c1cncnc1 | 54 to 55.5 |
| Cc1nc(N)sc1CCC1CCCCC1 | 98 to 100 |
| Cn1c(C(F)(F)F)cc(=O)n(-c2cc([N+](=O)[O-])c(C#N)cc2F)c1=O | 155 to 157 |
| Oc1cccc2c(Cl)ncnc12 | > 252 |
| CNC(=O)N(O)Cc1cccs1 | 108 |
| CCOC(=O)c1[nH]cc2c1C1C=CC2CC1 (stereo not given) | 129 to 130 |
| N#Cc1ccc(N2C(=O)C3=CCCN3C2=O)c2ccccc12 | 230 to 232 |
| OCC#Cc1ccc(F)cc1 | 32 to 33 |
| Cc1[nH]c(=O)cc2c1CC(c1ccncc1)CC2 (stereo not given) | > 300 |
| Clc1nccnc1Sc1ccccc1 | 100 to 111 |
| OCCCCc1cc(-c2ccc(C(F)(F)F)cc2)no1 | 68 to 69 |
| CC(=O)[C@H]1CC=C(C)C(=O)C1 | 35 |
| COc1cc2c(c(Cl)c1Cl)C(=O)C(c1ccccc1)C2 (stereo not given) | 187 to 192 |
| COC(=O)c1nc(-c2ccc(Cl)cc2)c(Cl)c(N)c1OC | 139 to 141 |
| CS(=O)c1ccc(Nc2ccn(-c3ccccc3)n2)cc1 (stereo not given) | 123 to 124 |
| CNC(=O)c1ccc(CN2CCN(c3nc(C)c(-c4cc(C)n[nH]4)s3)C2=O)cc1 | 236 to 238 |
| CC(c1cc(F)ccc1O)c1cc(Cl)cc(C(C)c2cc(F)ccc2O)c1O (stereo not given) | 224 |
| Cc1ccc(-n2ncc(C(=O)O)c2C(N)=O)cc1C | 231 to 232 |
| O=C(Nc1ccc(-n2nc(C(F)(F)F)cc2C(F)(F)F)cc1)c1cccs1 | > 230 |

| Compound | melting point [°C] |
| --- | --- |
| Cc1cc(O)cc(O)c1C=O | 174 to 177 |
| O=S(=O)(Nc1ncnc(OCCO)c1-c1ccc(Cl)cc1)c1ccc(C(F)(F)F)cc1 | 160 to 162 |
| CC(C)(NC(=O)CCSC(=O)c1ccccc1)C(=O)O | 142 to 143 |
| [O-][N+](=Cc1ccc(OCc2ccccc2)cc1)C1CCCCCCC1 | 108 |
| CC(C)(C)OC(=O)C=Cc1ccc2c(c1)OCO2 | 82 to 83 |
| O=C1CCC2=C(CCc3c(F)cccc32)N1 | 233 to 234 |
| Cn1ncc2nn(-c3cccc(C(F)(F)F)c3)c(=O)cc21 | 160 to 163 |
| COc1ccc(CC(S)C(N)=O)cc1C(=O)NCc1ccc(C(F)(F)F)cc1 (stereo not given) | 159 to 161 |
| COC1C2=C3C(=CN1OC)OCCC3CC(CCC#N)C2 (stereo not given) | 105 to 107 |
| c1ccc(CC2CCc3ccccc3N2)cc1 (stereo not given) | 187 to 190 |
| CCOC(=O)c1cc(C=O)[nH]n1 | 133 to 134 |
| CC12CCC3C(CCC4CC(=O)CCC43C)C1CC=C2c1cccnc1 (stereo not given) | 190 to 192 |
| CCCCCC/C=C/c1cccc(CCC(COC(C)=O)(COC(C)=O)NC(C)=O)c1 | 84 to 86 |
| CC(=Cc1cn(C)c2ccc3c(c12)CCCO3)[N+](=O)[O-] | 200 to 202 |
| CCCC1=C(C#N)C(c2cccc3oc(C)nc23)c2c[nH]nc2N1 (stereo not given) | 208 |
| O=C(O)Cc1onc(O)c1Cl | 155 |
| COC(=O)c1ccc(/C=C(\C)c2ccc3c(c2)SCCCN3C)cc1 | 97 to 98 |
| CC(C)(C)NNC(=O)C(C)(C)C | 97 to 105 |
| CCC(CC)COC(=O)c1ccc(N)cc1 | 52 to 53 |
| O=[N+]([O-])c1ccc(-c2cccnc2)s1 | 169 to 171 |
| CCCCNS(=O)(=O)c1ccc(N2CCC3(CC2)OCCO3)cc1 | 122 to 124 |
| Cc1nc(N2CCN(Cc3ccc(Cl)cc3)C2=O)sc1C(=O)NCc1cccnc1 | 178 to 179 |
| N#CC(C#N)=C1N(CCCN2CCCCC2)CCN1CCN1CCc2ccccc2C1 | 101 to 102 |
